Measured values published in ChEMBL document CHEMBL1201862, “PubChem BioAssay data set” (2004).
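Briefly, cells in 96-well plates were exposed to five compound concentrations for 48 h, and endpoints were estimated by linear interpolation. GI50 = concentration required for 50% inhibition of growth.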 Calls of active or inactive are those of the source. Rule as the data show it: active = GI50 up to about 1.1 µM and inactive = higher.

What was measured:
Experiment in all cases: NCI anticancer screen, dose series, 48 h
[1] = tested on: DLD-1
[2] = tested on: XF498
[3] = tested on: KM-20L2
[4] = tested on: M19-MEL
[5] = tested on: DMS-114
[6] = tested on: RXF 631
[7] = tested on: LXFL 529
[8] = tested on: SNB-78
[9] = tested on: DMS-273

Measured: GI50

O=C1c2cccc3cc([N+](=O)[O-])cc(c23)C(=O)N1NC1=NCCN1
inactive: [1] > 100 µM | [2] > 100 µM | [3] > 100 µM | [4] > 100 µM | [5] > 100 µM | [6] > 100 µM | [7] > 100 µM | [8] > 100 µM | [9] > 100 µM

Cc1cc(Cl)ccc1NC(=O)CC1SC(N)=NC1=O (stereo not given)
inactive: [1] > 100 µM | [3] > 100 µM | [4] > 100 µM | [5] > 100 µM | [6] > 100 µM | [7] > 100 µM | [9] > 100 µM

Cc1ccc(NC(=O)C2C3C=CC(O3)C2C(=O)O)cc1 (stereo not given)
inactive: [1] > 100 µM | [2] 71.9 µM | [3] > 100 µM | [4] > 100 µM | [5] 66.8 µM | [7] > 100 µM | [8] > 100 µM | [9] > 100 µM

O=C1c2ccccc2C(=O)c2sc(Nc3ccc(Cl)c(Cl)c3)nc21
inactive: [1] 2.15 µM | [2] 2.54 µM | [3] 19.5 µM | [4] 1.12 µM | [5] 1.67 µM | [6] 7.98 µM | [7] 1.82 µM | [8] 2.52 µM | [9] 5.3 µM

Nc1nc2ncn(CCO)c2c(=S)[nH]1
inactive: [1] > 100 µM | [3] > 100 µM | [4] > 100 µM | [5] > 100 µM | [7] > 100 µM | [8] > 100 µM | [9] > 100 µM

CC(C)CC(=O)N1CCN(C(=O)CC(C)C)c2ccccc21
inactive: [1] > 100 µM | [2] > 100 µM | [3] > 100 µM | [4] > 100 µM | [5] > 100 µM | [6] > 100 µM | [7] > 100 µM | [8] 91.6 µM | [9] > 100 µM

O=C1[C@@H](c2ccc(Cl)cc2)[C@H]2CC=C[C@H]2N1O
inactive: [1] > 100 µM | [2] > 100 µM | [4] > 100 µM | [5] 41.5 µM | [6] 39.7 µM | [7] > 100 µM | [8] > 100 µM | [9] > 100 µM

O=[N+]([O-])c1ccccc1[S+]([O-])c1ccccc1 (stereo not given)
inactive: [1] 71 µM | [2] > 100 µM | [4] 21.3 µM | [5] 22.1 µM | [7] > 100 µM | [8] 56.9 µM | [9] 47.2 µM

CC1(C)O[C@H]2[C@H](O)C[C@](O)(CO)C[C@H]2O1
inactive: [1] > 100 µM | [3] > 100 µM | [4] > 100 µM | [5] > 100 µM | [6] > 100 µM | [7] > 100 µM | [8] > 100 µM | [9] > 100 µM

CC(C)C(=O)Nc1nc2[nH]cnc2c(=O)[nH]1
inactive: [1] > 100 µM | [2] > 100 µM | [3] > 100 µM | [4] > 100 µM | [5] > 100 µM | [6] > 100 µM | [7] > 100 µM | [8] > 100 µM | [9] > 100 µM

CC1=C2C(c3ccccc3)(c3ccccc3)C3C=CC2(C=N3)N(C(=O)NC2CCCCC2)C1=O (stereo not given)
inactive: [3] 16.8 µM | [5] 17.9 µM | [6] 12.7 µM | [7] 16.6 µM | [8] 16.3 µM | [9] 17.9 µM

CCNC1=Nc2ccc(Cl)cc2C(c2ccccc2)=NN1
inactive: [2] 25.8 µM | [4] 18.1 µM | [5] 15.4 µM | [6] 19.9 µM | [8] 25.5 µM | [9] 10.9 µM

COC(=O)c1cc2c(nc1C)-c1ccccc1OS2(=O)=O
inactive: [1] > 100 µM | [2] 56.6 µM | [3] > 100 µM | [4] > 100 µM | [5] > 100 µM | [6] > 100 µM | [7] > 100 µM | [8] 82.8 µM | [9] > 100 µM

CSc1nc2c(c(O)c(C)c(=O)n2C2OC(COC(C)=O)C(OC(C)=O)C(OC(C)=O)C2OC(C)=O)c(=O)n1C (stereo not given)
inactive: [1] > 100 µM | [2] > 100 µM | [3] > 100 µM | [5] > 100 µM | [6] > 100 µM | [7] > 100 µM | [8] > 100 µM | [9] > 100 µM
